# Key:
# Jurkat cell line = test: Cytotoxicity, WST-1 cell viability; assay type: cell-based, human; conditions: 0.2 µM ~ 50 µM, 24 and 48 hours
# Protocol: For Example 1 (LCA-Ile), Example 44 (LCA-Val), Example 2 (UDCA-Ile), and Example 3 (UDCA-Val), cytotoxicity was evaluated in the Jurkat cell line, a human T lymphocyte-derived cell line. Jurkat cell lines were seeded at a density of 5 × 10^4 on a 96 well plate for overnight incubation, and each compound was treated at a concentration of 0.2 µM ~ 50 µM for 24 or 48 hours. WST-1, a reagent for measuring cell viability, was loaded at 10 µl/well, and absorbance was measured at 440 nm using a microplate reader 2 hours later. The mean value of negative control (NC) group treated with only DMSO was calculated as 1 and the cytotoxicity for the remaining experimental group was evaluated.
# HBV [1] = test: Inhibition of intracellular HBV virus invasion, HBeAg ELISA analysis; assay type: cell-based; conditions: 20 µM, HepG2-NTCP cell line, HBV 3000 Geq/cell, O.D. at 450 nm
# Protocol: (§1) In order to evaluate the ability to inhibit intracellular HBV virus entry (invasion), Enzyme-linked immunosorbent assay (ELISA) analysis to measure HBeAg, which is associated with high infectivity as an antigen in the HBV virus core portion, and Southern blot analysis to measure DNA of HBV were performed.
# (§2) Specifically, the HepG2-NTCP cell line was cultured on a 6-well plate, incubation was performed overnight, HBV inhibitors were treated at a concentration of 20 µM, and the positive control Myrcludex-B (MyrB) was treated at a concentration of 200 nM, followed by culture for 24 hours. After HBV infection into the cells to make HBV 3000 genome equivalent per ml/cell (Geq/cell), the cell culture medium was replaced (medium changing, MC) a day after the viral infection to remove the virus unattached to cell membranes. In order to measure an amount of virus that entered the cell, medium changing (MC) was performed once more 4 days after viral infection. 2 days after replacement, HBeAg ELISA analysis was performed using a supernatant, and Southern blot analysis was performed with cell pellets.
# HBeAg ELISA analysis was performed using an HBeAg ELISA kit (sanbio, Wantai HBeAg ELISA, cat#WB-2496) for the supernatant obtained by the method in Experimental Example 4-1.
# First, a negative control group (Mock), positive control group (MyrB), and samples according to the present disclosure were loaded, by 50 µl each to be triplicate, onto a 96-well plate coated with capture Ab. In this case, Example 1 (LCA-ILE), Example 44 (LCA-Val), Example 52 (LCA-Tyr), Example 51 (LCA-Ser), Example 55 (LCA-Glu), Example 2 (UDCA-Ile), Example 3 (UDCA-Val), Example 25 (LCA-Val-Trp), Example 10 (DCA-Ile), Comparative Example 1 (LCA), and Comparative Example 2 (UDCA) were used as the sample.
# The HRP-conjugated detection antibody was loaded into each well by 50 µl, followed by a reaction at 37°C for 30 minutes. Washing buffer (1X PBS, 0.5% Tween20) was added by 200 µl, and washing was performed 5 times. 50 µl of chromogen solution A and 50 µl of chromogen solution B were added to each well, and a reaction was carried out in the darkness at 37°C for 15 minutes. The stop solution was added to each well by 50 µl each to stop the reaction, and the amount of HBeAg was measured by measuring the absorbance (optical density, O.D.) level in the 450 nm wavelength band.
# HBV [2] = test: Inhibition of intracellular HBV virus invasion, Southern blot analysis; assay type: cell-based
# Protocol: as §1, §2
# For the cell pellet obtained by the method of Experimental Example 4-1, Southern blot analysis for measurement of […] DNA was performed using Example 1 (LCA-Ile), Example 44 (LCA-Val), Example 52 (LCA-Tyr), Example 51 (LCA-Ser), Example 55 (LCA-Glu), Example 2 (UDCA-Ile), Example 3 (UDCA-Val), Example 25 (LCA-Val-Trp), Example 10 (DCA-Ile), Comparative Example 1 (LCA), and Comparative Example 2 (UDCA).
# First, the cell pellets were pipetted with 100 µl of HEPES lysis buffer (10 mM HEPES, 100 mM NaCl, 1 mM EDTA, 1% NP-40), placed on ice for 20 minutes, and then centrifuged with a centrifuge under the conditions at 4°C and 13000 rpm. After transferring the supernatant only to the new microtube, 4.5 µl of nuclease buffer I (10 mM CaCl2, 12 mM MgCl2, DNase 10 units) was added to carry out a reaction at 37°C for 2 hours, and 40 µl of 26% PEG solution was added, followed by a reaction on ice for 1 hour. After centrifuging with the centrifuge at 4°C and 13000 rpm for 30 minutes, and the supernatant was removed cleanly. After releasing the pellets with 100 µl of nuclease buffer II (10 mM Tris, 8 mM CaCl2, 6mM MgCl2), 287.5 µl of 0.5% SDS buffer (25 mM Tris, 10 mM EDTA, 0.5% SDS, 100 mM NaCl) was added, and 12.5 µl of 20 mg/ml proteinase K was added, followed by a reaction at 37°C for 2 hours. 400 µl of phenol-chloroform-isoamyl alcohol was added, centrifugation was performed at room temperature at 13000 rpm after voltexing, the supernatant was transferred to a new tube, 40 µl of 3 M NaOAc was added, and 800 µl of 100% ethanol was added for inverting, followed by a reaction overnight at -20°C. After performing centrifugation at 4°C and 13000 rpm for 30 minutes, 800 µl of 70% ethanol was added and mixed to the pellet obtained by removing the supernatant, centrifugation was performed at 4°C and 13000 rpm for 10 minutes, and then the supernatant was discarded. The ethanol was dried for 5 minutes to leave only the HBV DNA pellets, and then the pellets were dissolved again in 15 µl of TE buffer (10 mM Tris, 1 mM EDTA). HBV DNA samples were loaded in 1% agarose gel, and electrophoresis was performed. It was then immersed in denature buffer (0.25 N NaOH, 1 M NaCl) for 30 minutes to denature dsDNA of HBV into ssDNA. The DNA in the gel was transferred to a Nylon membrane using a transfer buffer (0.4 M NaOH), the membrane was soaked with a 2X SSC buffer (sigma, cat# 85639) for neutralization, followed by drying in air. The membrane was immersed in a church buffer (10% BSA, 0.5 M EDTA, 1 M NaPi, 20% SDS), and the radioisotopes were hybridized using a Mega prime kit (GE healthcare, RPN1607). After washing three times with washing buffer (2X SSC, 0.1% SDS), measurement was performed using radioisotope measurement equipment, and a relative replication rate (%) to the negative control group (Mock) was calculated and shown.
smiles,measurement,setting,value
"CC[C@@H](C)[C@H](NC(=O)CC[C@@H](C)[C@H]1CC[C@H]2[C@@H]3CC[C@@H]4C[C@H](O)CC[C@]4(C)[C@H]3CC[C@]12C)C(=O)O [Example 1, (2S,3R)-2-((R)-4-((3R,5R,8R,9S,10S,13R,14S,17R)-3-hydroxy-10,13-dimethyl-hexadecahydro-1H-cyclopenta[a]phenanthren-17-yl)pentanamido)-3-methylpentanoic acid]",cytotoxicity,Jurkat cell line,barely observed
same,HBeAg absorbance level compared with Comparative Example 1 (LCA) and Comparative Example 2 (UDCA),HBV [1],lower
same,HBeAg absorbance level compared with the negative control group (Mock),HBV [1],relatively lower
same,amount of HBeAg DNA detected compared to the negative control group (Mock),"HBV [2]; 20 µM, HepG2-NTCP cell line, HBV 3000 Geq/cell",relatively less amount
same,activity at 20 µM,"HBV [2]; Hepatitis B virus, read-out: relative replication rate of quantified HBeAg DNA to the negative control group (Mock), 20 µM, HepG2-NTCP cell line, HBV 3000 Geq/cell",< 80%
